Measured values: patent US20140066373A1, “TREATING DIABETES WITH OXYTOCIN OR OXYTOCIN ANALOGS” (Albert Einstein College of Medicine of Yeshiva University, priority 2012, published 2014)
Where no end group is shown, it is not given here.

Columns and labels:
[1] = tested on: uterine contractile response; settings: of natural oxytocin, literature report (36); cited from earlier work
[2] = tested on: STZ-induced diabetic mice; assay: 7-day intra-third ventricle pretreatment in STZ-induced diabetic mice: GTT, fasting blood insulin, GSIS, body weight; assay type: in vivo, C57BL/6 mice; settings: vs STZ control; for first-phase glucose-stimulated insulin secretion (GSIS): blood insulin 3 min after glucose 3 g/kg i.p.; for fasting blood insulin levels / glucose intolerance (glucose tolerance test, GTT and AUC): pretreatment twice per day for 7 days, intra-third ventricle, 1 μg per injection (1 mg [sic] for [Ser4, Ile8]-oxytocin), STZ 40 mg/kg i.p. Day 4 to Day 7
Excerpt: (§1) Animals. C57BL/6 mice were purchased from Jackson Laboratory. All mice were housed in standard conditions. High-fat diet was purchased from Research Diets, Inc. All animal procedures were approved by the Institutional Animal Care and Use Committee. Mice were subjected to body weight measurement on a daily basis surrounding surgical procedures or drug treatments to monitor physical recovery or the effect of drug treatment on body weight.
(§2) Third ventricle cannulation and drug treatment. Third ventricle cannulation procedure was as previously described (39). An ultra-precise small animal stereotactic apparatus (Kopf Instruments) was used to perform implantation of a guide cannula into the third ventricle of anesthetized mice, at the coordinates of 1.8 mm posterior to the bregma and 5.0 mm below the skull surface. Mice were allowed 1-2 weeks for postsurgical recovery. For drug treatment. Oxytocin (Bachem Americas, Inc.), [Ser4, Ile8]-oxytocin (Bachem Americas, Inc.), [Asu1,6]-oxytocin (American Peptide Company, Inc.) or control vehicle were injected via pre-implanted guide cannula into the third ventricle of individually housed mice.
(§3) Blood tests. For glucose tolerance test (GTT), overnight-fasted mice received one-time intraperitoneal injection of glucose (2 g/kg body weight), and blood glucose levels were measured using OneTouch Ultra2 (LifeScan, Inc.). Fasting blood insulin levels were measured with Ultra Sensitive Mouse Insulin ELISA kits (Crystal Chem). Glucose-stimulated insulin secretion (GSIS) test was performed as previously described (19). Overnight-fasted mice received one-time intraperitoneal injection of glucose (3 g/kg body weight), and blood insulin levels were measured at 3 min. and 20 min. after the injection.
Next, it was investigated if oxytocin therapy may treat diabetes by counteracting its main pathological changes of pancreatic beta cell dysfunction and impaired insulin secretion. […] Experimentally, adult C57BL/6 mice on normal chow diet received intra-third ventricle implantation of cannula and postsurgical recovery. Oxytocin pretreatment was given at 1 μg per injection twice per day for 7 consecutive days via pre-implanted cannula, and non-treatment group received vehicle injections. From Day 4 to Day 7 during oxytocin treatment, mice simultaneously received intraperitoneal injections of STZ at 40 mg/kg body weight per day for 4 days to induce diabetes.
The same test strategy of pretreating mice with [Ser4, Ile8]-oxytocin was employed and then evaluating if it could attenuate the extent of STZ-induced beta cell dysfunction and diabetes. Adult chow-fed C57BL/6 mice first received intra-third ventricle injections of [Ser4, Ile8]-oxytocin at 1 mg per injection twice per day for 7 consecutive days. Non-treatment control mice received intra-third ventricle injections of vehicle instead of [Ser4, Ile8]-oxytocin. From Day 4 to Day 7 of [Ser4, Ile8]-oxytocin treatment, both treatment and control groups received intraperitoneal injections of STZ at 40 mg/kg body weight per injection per day for 4 days. The same panel of examinations were performed including glucose tolerance test, fasting blood insulin levels and glucose-stimulated insulin secretion in these mice.
Finally [Asu1,6]-oxytocin was tested for potential […] protection and anti-diabetic effects using an STZ-induced diabetic mouse model. [Asu1,6]-oxytocin pretreatment was given to adult chow-fed C57BL/6 mice via intra-third ventricle injections at 1 μg per injection b.i.d. for 7 consecutive days. Vehicle injections were given in parallel to non-treatment control group. From Day 4 to Day 7 of [Asu1,6]-oxytocin treatment, mice were subjected to STZ induction of diabetes at 40 mg/kg body weight per intraperitoneal injection per day for 4 days. Following [Asu1,6]-oxytocin and STZ treatments, mice were evaluated for glucose tolerance test, fasting blood insulin levels, and glucose-stimulated insulin secretion.

[3] = tested on: HFD-induced prediabetic mouse model; assay: Acute intra-third ventricle therapy in HFD-induced prediabetic (dietary obese) mice: GTT, fasting blood insulin, body weight; assay type: in vivo, C57BL/6 mice; settings: for fasting blood insulin levels (hyperinsulinemia) / glucose intolerance (glucose tolerance test, GTT and AUC) / treatment effects compared with oxytocin at the same dose: 2-month HFD mice, intra-third ventricle; for fasting blood insulin levels (hyperinsulinemia) / glucose intolerance (glucose tolerance test, GTT and AUC): 2 μg per injection twice over overnight fasting, vs vehicle; for treatment effects compared with oxytocin at the same dose: 2 μg per injection twice, GTT and fasting insulin
Excerpt: as §1, §2, §3
Acute oxytocin therapy reverses insulin resistance in dietary obese mice independently of body weight. […] To experimentally address whether oxytocin could have an anti-diabetic action, and independently of its anti-obesity effect, an acute oxytocin therapy paradigm was applied to dietary obese mice to avoid confounding body weight changes, so that the potential anti-diabetes effect of oxytocin could be dissected from its anti-obesity effect. Adult male C57BL/6 mice […] of high-fat diet (HFD) feeding since weaning to develop pre-diabetic glucose intolerance and hyperinsulinemia. Then these mice received third-ventricle implantation of guide cannula followed by postsurgical recovery. Oxytocin was administered via pre-implanted third-ventricle cannula at a dose of 2 μg per injection twice over an overnight fasting period, one at the starting point of fasting and the other at 30 min prior to glucose tolerance test (GTT). Mice of treatment control group received intra-third ventricle vehicle injections.
Acute [Ser4, Ile8]-oxytocin therapy improves insulin resistance in dietary obese mice independently of body weight. Having observed the anti-insulin resistance effect of oxytocin, it was next investigated whether oxytocin peptide analogs have similar or stronger treatment effect. The purpose of this experiment was two-fold. First, was to investigate whether the anti-insulin resistance action of oxytocin could be extended to oxytocin analogs. […] Existing oxytocin peptide analogs were screened. [Ser4, Ile8]-oxytocin came out of the screen as a good candidate. […] This stronger anti-insulin resistance effect of [Ser4, Ile8]-oxytocin is in line with structure-based theoretical prediction of drug effects. The substitution of glutamine at amino acid position 4 of oxytocin with serine has two direct effects on peptide function—it strengthens the α-helical structure in peptide (13), which leads to an overall structural stabilization, longer drug duration, and better protein binding property with signaling partners; it also increases the hydrophobicity of peptide, which leads to enhanced membrane permeability and improved tissue distribution. […]

[4] = tested on: normal men; settings: normal men (29); cited from earlier work
[5] = tested on: obesity; settings: cited from earlier work
[6] = tested on: type-1 diabetic patients; settings: type-1 diabetic patients (28); cited from earlier work
[7] = tested on: normal rats; settings: central or peripheral administration; normal rats (5); cited from earlier work

Compound | intrinsic activity relative to natural oxytocin [1] [%] | first-phase glucose-stimulated insulin secretion (GSIS) ([2]; 7-day pretreatment, STZ mice) | fasting blood insulin levels [2] | glucose intolerance (glucose tolerance test, GTT and AUC) [2] | fasting blood insulin levels (hyperinsulinemia) [3] | glucose intolerance (glucose tolerance test, GTT and AUC) [3] | treatment effects compared with oxytocin at the same dose [3] | pancreatic insulin secretion [4] | obesity ([5]; chronic central or peripheral oxytocin treatment (25; 37)) | food intake ([5]; oxytocin treatment (37)) | pancreatic insulin secretion [6] | pancreatic insulin secretion [7] | second-phase glucose-stimulated insulin secretion (GSIS) ([2]; blood insulin 20 min after glucose 3 g/kg i.p., 7-day pretreatment, STZ mice) | insulin resistance ([3]; obesity-induced type-2 prediabetic mice, acute treatment)
[Asu1,6]-oxytocin | ~70 | appreciably improved | appreciably improved | appreciably improved | lowered fasting blood insulin levels | improved glucose intolerance | slightly weaker than oxytocin |  |  |  |  |  |  | 
[Ser4, Ile8]-oxytocin (CYISNCPIG; ends and bridges not checked; cysteine pairing not given here; UniProt P01178 20-28, looked up, variant Q4S L8I) [oxytocin analog: glutamine at position 4 substituted with serine, leucine at position 8 with isoleucine; Bachem Americas, Inc] |  | significantly higher levels of first-phase GSIS than non-treatment group | ameliorated circulating insulin insufficiency | significantly prevented STZ-induced glucose intolerance | significantly corrected | significantly corrected glucose intolerance | higher efficacy than oxytocin |  |  |  |  |  |  | 
CC[C@H](C)[C@@H]1NC(=O)[C@H](Cc2ccc(O)cc2)NC(=O)[C@@H](N)CSSC[C@@H](C(=O)N2CCC[C@H]2C(=O)N[C@@H](CC(C)C)C(=O)NCC(N)=O)NC(=O)[C@H](CC(N)=O)NC(=O)[C@H](CCC(N)=O)NC1=O [oxytocin, Cys-Tyr-Ile-Gln-Asn-Cys-Pro-Leu-Gly-NH2] |  | potentiated | protected fasting blood insulin levels | significantly improved glucose intolerance | significantly improved | significantly improved |  | can stimulate pancreatic insulin secretion | can decrease obesity | decreases rather than increases food intake | can stimulate pancreatic insulin secretion | can stimulate pancreatic insulin secretion | potentiated | can acutely reverse insulin resistance
